How the values were obtained:
human GLP-2R = target: T1, human GLP-2R (Homo sapiens, UniProt O95838); experiment: HitHunter cAMP assay in transiently transfected COS-7 cells, human GLP-2R; type: cell-based; details: Emax normalized to highest concentration of endogenous ligand; Table 2;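 also: cells kept 30 min at 37 °C in buffer with 1 mM IBMX, then given ligand for another 30 min at 37 °C before cAMP readout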
T1 construct: host or cells: COS-7
T1 sequence (O95838 1-553): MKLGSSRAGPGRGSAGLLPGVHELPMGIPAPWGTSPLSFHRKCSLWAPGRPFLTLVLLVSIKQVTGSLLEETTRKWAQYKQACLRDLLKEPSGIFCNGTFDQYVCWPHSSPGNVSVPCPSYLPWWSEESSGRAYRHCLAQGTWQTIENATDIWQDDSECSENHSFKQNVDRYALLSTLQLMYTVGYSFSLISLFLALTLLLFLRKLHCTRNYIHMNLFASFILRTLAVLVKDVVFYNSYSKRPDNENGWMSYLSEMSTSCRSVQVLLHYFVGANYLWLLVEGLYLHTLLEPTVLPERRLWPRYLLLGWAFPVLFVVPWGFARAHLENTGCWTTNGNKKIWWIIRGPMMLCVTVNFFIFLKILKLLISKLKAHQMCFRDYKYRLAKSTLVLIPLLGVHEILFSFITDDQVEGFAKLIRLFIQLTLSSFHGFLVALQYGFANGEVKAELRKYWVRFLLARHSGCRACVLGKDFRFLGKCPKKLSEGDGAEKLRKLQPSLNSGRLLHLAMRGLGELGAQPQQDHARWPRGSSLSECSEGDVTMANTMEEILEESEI
Procedure: COS-7 cells were cultured at 10% CO2 and 37° C. in Dulbecco's Modified Eagle Medium (DMEM) 1885 supplemented with 10% fetal bovine serum (FBS), 2 mM glutamine, 180 units/ml penicillin, and 45 g/ml streptomycin.
The next day the assay was initiated by washing with HEPES buffered saline (HBS) and followed by an incubation step with assay buffer (HBS added 1 mM isobutyl-1-methylxanthine (IBMX)) for 30 min at 37° C. The ligands were then added and incubated for an additional 30 min at 37° C. After ligand incubation, the HitHunter® CAMP assay (Eurofins DiscoverX, Fremont, 150 USA) was carried out according to the manufacturer's instructions. Luminescence was measured by PerkinElmer™ EnVision 2014 Multilabel Reader (PerkinElmer, Waltham, MA). The potencies (EC50 values) were determined by nonlinear regression using GraphPad Prism 9 (San Diego, California, USA). Sigmoid curves were fitted logistically. The efficacies (Emax values) were determined by normalization to the highest concentration applied of the endogenous ligand for each receptor.

human GIPR = target: T2, human GIPR (Homo sapiens, UniProt P48546); type: cell-based; set-up: host or cells: COS-7; details: Emax normalized to highest concentration of endogenous ligand; Table 2
T2 sequence (P48546 22-466): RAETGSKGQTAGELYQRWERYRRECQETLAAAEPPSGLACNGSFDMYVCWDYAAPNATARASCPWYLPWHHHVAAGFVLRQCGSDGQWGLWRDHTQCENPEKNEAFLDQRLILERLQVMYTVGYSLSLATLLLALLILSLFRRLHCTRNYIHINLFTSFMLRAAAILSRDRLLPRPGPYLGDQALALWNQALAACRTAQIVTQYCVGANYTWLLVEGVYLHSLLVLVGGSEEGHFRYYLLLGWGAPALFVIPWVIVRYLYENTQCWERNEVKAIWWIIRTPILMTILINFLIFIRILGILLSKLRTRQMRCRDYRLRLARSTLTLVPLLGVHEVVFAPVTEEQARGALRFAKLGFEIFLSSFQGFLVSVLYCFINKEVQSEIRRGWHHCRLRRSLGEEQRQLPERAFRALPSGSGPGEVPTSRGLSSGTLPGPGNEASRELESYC

Substance	Efficacy GLP-2R (human GLP-2R)	Efficacy GIPR (human GIPR)
(C16)HADGTFISDYSTILDELAARDFINWLIQTKITKNDWKHNITQ [Compound no. 48]	69	112
(C16)HADGTFISDYSTILDNLAAKDFINWLIQTKITK [Compound no. 45]	59	91
(C16)HADGTFISDYSTILDNLAARDFIEWLIQTKITKNDWKHNITQ [Compound no. 50]	70	101
(C16)HADGTFISDYSTILDNLAARDFINWLIATKITKNDWKHNITQ [Compound no. 52]	68	
(C16)HADGTFISDYSTILDNLAARDFINWLIETKITKNDWKHNITQ [Compound no. 51]	66	104
(C16)HADGTFISDYSTILDNLAARDFINWLIQTKIT [Compound no. 2]	59	80
(C16)HADGTFISDYSTILDNLAARDFINWLIQTKITKAEWKHAITQ [Compound no. 49]	92	105
(C16)HADGTFISDYSTILDNLAARDFINWLLAQKITK [Compound no. 46]	82	98
(C16-diacid)H-Aib-DGTFISDYST-Aib-LDALAARDFIEWLIQTKITK-OH [Compound no. 20]	88	93
(C16-diacid)H-Aib-DGTFISDYST-Aib-LDKLAARDFIEWLIQTKITK-OH [Compound no. 22]	95	91
(C16-diacid)H-Aib-DGTFISDYST-Aib-LDKLAARDFINWLIETKITK-OH [Compound no. 23]	86	107
(C16-diacid)H-Aib-DGTFISDYST-Aib-LDNLAAKDFINWLIQTKITKNDWKHNITQ-OH [Compound no. 42]	93	
(C16-diacid)H-Aib-DGTFISDYST-Aib-LDNLAARDFINWLIQTKITKNDWKHNITQ-OH [Compound no. 40]	96	94
(C16-diacid)H-Aib-EGTFISDYST-Aib-LDNLAAKDFINWLIQTKITKNDWKHNITQ-OH [Compound no. 43]	73	101
(C16-diacid)H-Aib-EGTFISDYST-Aib-LDNLAARDFINWLIQTKITK-OH [Compound no. 19]	81	98
(C16-diacid)HADGTFISDYSTAibLDNLAARDFINWLIQTKITKNDWKHNITQ [Compound no. 39]	78	99
Ac-H-Aib-DGTFISDY-K(γGlu-C16)-T-Aib-LDNLAARDFINWLIQTKITK-OH [Compound no. 34]	103	75
Ac-H-Aib-DGTFISDY-K(γGlu-C16)-T-Aib-LDNLAARDFINWLIQTKITKNDWKHNITQ-OH [Compound no. 38]	89	81
H-Aib-DGTFISDY-K(γGlu-C16)-TILDNLAARDFINWLIETKITK-OH [Compound no. 32]	84	89
